How the values were obtained:
Assay type in all cases: cell-based
Escherichia coli 61 = experiment: IO staining of colonies of beta-D-galactosidase positive/negative bacteria (Table IVb); details: Escherichia coli strain 61, b-gal +; 24 h on Nutrient Agar, 150 mg/l indicator, 100 mg/l IPTG; for C: Color of colonies: key: −: absent; +/−: weak; +: strong; ++: very strong; for G: Growth of colonies: key: −: absent; +/−: weak; +: strong; ++: very strong
[1] = system: Escherichia coli (O157:H7) 60; experiment: as above; details: Escherichia coli (O157:H7) strain 60, b-gal +; 24 h on Nutrient Agar, 150 mg/l indicator, 100 mg/l IPTG
[2] = system: Staphylococcus intermedius 31; experiment: as above; details: Staphylococcus intermedius strain 31, b-gal +; 24 h on Nutrient Agar, 150 mg/l indicator, 100 mg/l IPTG
Enterobacter cloacae 245 = experiment: as above; details: Enterobacter cloacae strain 245, b-gal +; 24 h on Nutrient Agar, 150 mg/l indicator, 100 mg/l IPTG; for C: Color of colonies: key: −: absent; +/−: weak; +: strong; ++: very strong; for G: Growth of colonies: key: −: absent; +/−: weak; +: strong; ++: very strong
[3] = system: Staphylococcus saprophyticus 273; experiment: as above; details: Staphylococcus saprophyticus strain 273, b-gal +; 24 h on Nutrient Agar, 150 mg/l indicator, 100 mg/l IPTG; for G: Growth of colonies: key: −: absent; +/−: weak; +: strong; ++: very strong
Serratia marcescens 40 = experiment: as above; details: Serratia marcescens strain 40, b-gal +; 24 h on Nutrient Agar, 150 mg/l indicator, 100 mg/l IPTG; for G: Growth of colonies: key: −: absent; +/−: weak; +: strong; ++: very strong
[4] = system: Yersinia enterocolitica 175; experiment: as above; details: Yersinia enterocolitica strain 175, b-gal +/−; 24 h on Nutrient Agar, 150 mg/l indicator, 100 mg/l IPTG; for G: Growth of colonies: key: −: absent; +/−: weak; +: strong; ++: very strong
[5] = system: Shigella dysenteriae Serovar 1 131; experiment: as above; details: Shigella dysenteriae Serovar 1 strain 131, b-gal +/−; 24 h on Nutrient Agar, 150 mg/l indicator, 100 mg/l IPTG
Aeromonas hydrophila 292 = experiment: as above; details: Aeromonas hydrophila strain 292, b-gal +; 24 h on Nutrient Agar, 150 mg/l indicator, 100 mg/l IPTG; for G: Growth of colonies: key: −: absent; +/−: weak; +: strong; ++: very strong
[6] = system: Enterobacter aerogenes 242; experiment: as above; details: Enterobacter aerogenes strain 242, b-gal +; 24 h on Nutrient Agar, 150 mg/l indicator, 100 mg/l IPTG; for C: Color of colonies: key: −: absent; +/−: weak; +: strong; ++: very strong; for G: Growth of colonies: key: −: absent; +/−: weak; +: strong; ++: very strong
Staphylococcus aureus 2 = experiment: as above; details: Staphylococcus aureus strain 2, b-gal −, 24 h on Nutrient Agar, 150 mg/l indicator, 100 mg/l IPTG; for C: Color of colonies: footnote 2: S. aureus natural color; for F: Fluorescence of colonies: key: −: absent; +/−: weak; +: strong; ++: very strong
[7] = system: Klebsiella pneumoniae 164; experiment: as above; details: Klebsiella pneumoniae strain 164, b-gal +; 24 h on Nutrient Agar, 150 mg/l indicator, 100 mg/l IPTG; for C: Color of colonies: key: −: absent; +/−: weak; +: strong; ++: very strong; for G: Growth of colonies: key: −: absent; +/−: weak; +: strong; ++: very strong
Escherichia coli 270 = experiment: as above; details: Escherichia coli strain 270, b-gal +; 24 h on Nutrient Agar, 150 mg/l indicator, 100 mg/l IPTG; for C: Color of colonies: key: −: absent; +/−: weak; +: strong; ++: very strong; for G: Growth of colonies: key: −: absent; +/−: weak; +: strong; ++: very strong
[8] = system: Pseudomonas aeruginosa 168; experiment: as above; details: Pseudomonas aeruginosa strain 168, b-gal −, 24 h on Nutrient Agar, 150 mg/l indicator, 100 mg/l IPTG; for F: Fluorescence of colonies: footnote 1: blue autofluorescence; for C: Color of colonies: key: −: absent; +/−: weak; +: strong; ++: very strong; for G: Growth of colonies: key: −: absent; +/−: weak; +: strong; ++: very strong
[9] = system: Salmonella enteritidis 43; experiment: as above; details: Salmonella enteritidis strain 43, b-gal −; 24 h on Nutrient Agar, 150 mg/l indicator, 100 mg/l IPTG; note: key: −: absent; +/−: weak; +: strong; ++: very strong
Salmonella illa 73 = experiment: as above; details: Salmonella illa strain 73, b-gal +; 24 h on Nutrient Agar, 150 mg/l indicator, 100 mg/l IPTG; note: key: −: absent; +/−: weak; +: strong; ++: very strong
Salmonella bongori 81 = experiment: as above; details: Salmonella bongori strain 81, b-gal +; 24 h on Nutrient Agar, 150 mg/l indicator, 100 mg/l IPTG; for C: Color of colonies: key: −: absent; +/−: weak/variable; +: strong; for G: Growth of colonies: key: −: absent; +/−: weak; +: strong; ++: very strong
Citrobacter freundii 181 = experiment: as above; details: Citrobacter freundii strain 181, b-gal +; 24 h on Nutrient Agar, 150 mg/l indicator, 100 mg/l IPTG; for C: Color of colonies: key: −: absent; +/−: weak; +: strong; ++: very strong; for G: Growth of colonies: key: −: absent; +/−: weak; +: strong; ++: very strong
[10] = system: Listeria monocytogenes (4b) 290; experiment: as above; details: Listeria monocytogenes (4b) strain 290, b-gal −; 24 h on Nutrient Agar, 150 mg/l indicator, 100 mg/l IPTG; for C: Color of colonies: key: −: absent; +/−: weak; +: strong; ++: very strong; for F: Fluorescence of colonies: key: −: absent; +/−: weak; +: strong; ++: very strong
Escherichia coli = experiment: IN and IO staining of bacterial colonies under anaerobic conditions; details: for C: Color of colonies / D: Diffusion around colonies / G: Growth of colonies / I: Intensity of color / L: Localization on colonies / S: Size of colonies: Nutrient Agar plates, anaerobically incubated with E. coli
Description: Nutrient Agar plates containing 150 mg/l of various substrates and 100 mg/l IPTG were inoculated with Escherichia coli. Plates were put in an anaerobic jar (Anaerojar, Oxoid), an AnaeroGen sachet (Oxoid) was added, the jar was closed and incubated for 24 hours at 37° C.
IN staining cannot be used under anaerobic conditions.

[11] = system: Streptococcus agalactiae 195; experiment: IO staining of colonies of beta-D-galactosidase positive/negative bacteria (Table IVb); details: Streptococcus agalactiae strain 195, b-gal −; 24 h on Nutrient Agar, 150 mg/l indicator, 100 mg/l IPTG; for C: Color of colonies: key: −: absent; +/−: weak; +: strong; ++: very strong; for F: Fluorescence of colonies: key: −: absent; +/−: weak; +: strong; ++: very strong
Shigella boydii 135 = experiment: as above; details: Shigella boydii strain 135, b-gal −; 24 h on Nutrient Agar, 150 mg/l indicator, 100 mg/l IPTG; note: key: −: absent; +/−: weak; +: strong; ++: very strong
Shigella sonnei 133 = experiment: as above; details: Shigella sonnei strain 133, b-gal +/−; 24 h on Nutrient Agar, 150 mg/l indicator, 100 mg/l IPTG; for C: Color of colonies: key: −: absent; +/−: weak; +: strong; ++: very strong; for G: Growth of colonies: key: −: absent; +/−: weak; +: strong; ++: very strong
Bacillus subtilis 65 = experiment: as above; details: Bacillus subtilis strain 65, b-gal −; 24 h on Nutrient Agar, 150 mg/l indicator, 100 mg/l IPTG; for C: Color of colonies: key: −: absent; +/−: weak; +: strong; ++: very strong; for F: Fluorescence of colonies: key: −: absent; +/−: weak; +: strong; ++: very strong

O=C(c1ccccc1)c1ccccc1-n1cc(O[C@@H]2O[C@H](CO)[C@H](O)[C@H](O)[C@H]2O)c2c(Cl)c(Br)ccc21 [Indicator I22a, 1-(2-Benzoylphenyl)-5-bromo-4-chloro-1H-indol-3-yl-beta-D-galactopyranoside]
C: Color of colonies (Escherichia coli 61): +
F: Fluorescence of colonies (Escherichia coli 61): +/−
G: Growth of colonies (Escherichia coli 61): +
C: Color of colonies [1]: +
F: Fluorescence of colonies [1]: +/−
G: Growth of colonies [1]: +
C: Color of colonies [2]: −
F: Fluorescence of colonies [2]: −
G: Growth of colonies [2]: −
C: Color of colonies (Enterobacter cloacae 245): +
F: Fluorescence of colonies (Enterobacter cloacae 245): +/−
G: Growth of colonies (Enterobacter cloacae 245): +
C: Color of colonies [3]: −
F: Fluorescence of colonies [3]: −
G: Growth of colonies [3]: −
C: Color of colonies (Serratia marcescens 40): +
F: Fluorescence of colonies (Serratia marcescens 40): +/−
G: Growth of colonies (Serratia marcescens 40): +
C: Color of colonies [4]: −
F: Fluorescence of colonies [4]: −
G: Growth of colonies [4]: +
C: Color of colonies [5]: −
F: Fluorescence of colonies [5]: −
G: Growth of colonies [5]: +
C: Color of colonies (Aeromonas hydrophila 292): +/−
F: Fluorescence of colonies (Aeromonas hydrophila 292): +/−
G: Growth of colonies (Aeromonas hydrophila 292): +
C: Color of colonies [6]: +
F: Fluorescence of colonies [6]: +/−
G: Growth of colonies [6]: +
F: Fluorescence of colonies (Staphylococcus aureus 2): −
G: Growth of colonies (Staphylococcus aureus 2): −
C: Color of colonies (Staphylococcus aureus 2): −
C: Color of colonies [7]: +
F: Fluorescence of colonies [7]: +/−
G: Growth of colonies [7]: +
C: Color of colonies (Escherichia coli 270): +
F: Fluorescence of colonies (Escherichia coli 270): +/−
G: Growth of colonies (Escherichia coli 270): +
C: Color of colonies [8]: −
G: Growth of colonies [8]: +
F: Fluorescence of colonies [8]: +^1
C: Color of colonies [9]: −
F: Fluorescence of colonies [9]: −
G: Growth of colonies [9]: +
C: Color of colonies (Salmonella illa 73): −
F: Fluorescence of colonies (Salmonella illa 73): −
G: Growth of colonies (Salmonella illa 73): +
C: Color of colonies (Salmonella bongori 81): +/−
F: Fluorescence of colonies (Salmonella bongori 81): −
G: Growth of colonies (Salmonella bongori 81): +
C: Color of colonies (Citrobacter freundii 181): +
F: Fluorescence of colonies (Citrobacter freundii 181): +/−
G: Growth of colonies (Citrobacter freundii 181): +
C: Color of colonies [10]: −
F: Fluorescence of colonies [10]: −
G: Growth of colonies [10]: −
Localization of stain under anaerobic conditions (Escherichia coli; E. coli, anaerobic, 24 hours at 37° C.): perfect localization
C: Color of colonies (Escherichia coli): o-r
D: Diffusion around colonies (Escherichia coli): −
G: Growth of colonies (Escherichia coli): +
I: Intensity of color (Escherichia coli): +
L: Localization on colonies (Escherichia coli): ++
S: Size of colonies (Escherichia coli): 0.5 mm
C: Color of colonies [11]: −
F: Fluorescence of colonies [11]: −
G: Growth of colonies [11]: −
C: Color of colonies (Shigella boydii 135): −
F: Fluorescence of colonies (Shigella boydii 135): −
G: Growth of colonies (Shigella boydii 135): +
C: Color of colonies (Shigella sonnei 133): +
F: Fluorescence of colonies (Shigella sonnei 133): +/−
G: Growth of colonies (Shigella sonnei 133): +
C: Color of colonies (Bacillus subtilis 65): −
F: Fluorescence of colonies (Bacillus subtilis 65): −
G: Growth of colonies (Bacillus subtilis 65): −

COc1ccc(C(=O)c2ccccc2-n2cc(O[C@@H]3O[C@H](CO)[C@H](O)[C@H](O)[C@H]3O)c3ccc(Cl)cc32)c(OC)c1 [Indicator I27a, 6-Chloro-1-[2-(2,4-dimethoxybenzoyl)phenyl]-1H-indol-3-yl-beta-D-galactopyranoside]
C: Color of colonies (Escherichia coli 61): ++
F: Fluorescence of colonies (Escherichia coli 61): ++
G: Growth of colonies (Escherichia coli 61): +
C: Color of colonies [1]: ++
F: Fluorescence of colonies [1]: ++
G: Growth of colonies [1]: +
C: Color of colonies [2]: −
F: Fluorescence of colonies [2]: −
G: Growth of colonies [2]: +/−
C: Color of colonies (Enterobacter cloacae 245): ++
F: Fluorescence of colonies (Enterobacter cloacae 245): ++
G: Growth of colonies (Enterobacter cloacae 245): +
C: Color of colonies [3]: +/−
F: Fluorescence of colonies [3]: +/−
G: Growth of colonies [3]: +
C: Color of colonies (Serratia marcescens 40): +
F: Fluorescence of colonies (Serratia marcescens 40): +
G: Growth of colonies (Serratia marcescens 40): +
C: Color of colonies [4]: +/−
F: Fluorescence of colonies [4]: −
G: Growth of colonies [4]: +
C: Color of colonies [5]: −
F: Fluorescence of colonies [5]: −
G: Growth of colonies [5]: +
C: Color of colonies (Aeromonas hydrophila 292): +
F: Fluorescence of colonies (Aeromonas hydrophila 292): +
G: Growth of colonies (Aeromonas hydrophila 292): +
C: Color of colonies [6]: +
F: Fluorescence of colonies [6]: +
G: Growth of colonies [6]: +
F: Fluorescence of colonies (Staphylococcus aureus 2): −
G: Growth of colonies (Staphylococcus aureus 2): +/−
C: Color of colonies (Staphylococcus aureus 2): −
C: Color of colonies [7]: +
F: Fluorescence of colonies [7]: +
G: Growth of colonies [7]: +
C: Color of colonies (Escherichia coli 270): ++
F: Fluorescence of colonies (Escherichia coli 270): ++
G: Growth of colonies (Escherichia coli 270): +
C: Color of colonies [8]: −
G: Growth of colonies [8]: +
F: Fluorescence of colonies [8]: +^1
C: Color of colonies [9]: −
F: Fluorescence of colonies [9]: −
G: Growth of colonies [9]: +
C: Color of colonies (Salmonella illa 73): −
F: Fluorescence of colonies (Salmonella illa 73): −
G: Growth of colonies (Salmonella illa 73): +
C: Color of colonies (Salmonella bongori 81): +/−
F: Fluorescence of colonies (Salmonella bongori 81): +/−
G: Growth of colonies (Salmonella bongori 81): +
C: Color of colonies (Citrobacter freundii 181): +
F: Fluorescence of colonies (Citrobacter freundii 181): +
G: Growth of colonies (Citrobacter freundii 181): +
C: Color of colonies [10]: −
F: Fluorescence of colonies [10]: −
G: Growth of colonies [10]: +/−
C: Color of colonies (Escherichia coli): y-o
D: Diffusion around colonies (Escherichia coli): +/−
G: Growth of colonies (Escherichia coli): +
I: Intensity of color (Escherichia coli): +
L: Localization on colonies (Escherichia coli): +
S: Size of colonies (Escherichia coli): 1 mm
C: Color of colonies [11]: −
F: Fluorescence of colonies [11]: −
G: Growth of colonies [11]: +/−
C: Color of colonies (Shigella boydii 135): −
F: Fluorescence of colonies (Shigella boydii 135): −
G: Growth of colonies (Shigella boydii 135): +
C: Color of colonies (Shigella sonnei 133): +
F: Fluorescence of colonies (Shigella sonnei 133): ++
G: Growth of colonies (Shigella sonnei 133): +
C: Color of colonies (Bacillus subtilis 65): −
F: Fluorescence of colonies (Bacillus subtilis 65): −
G: Growth of colonies (Bacillus subtilis 65): +

Reference: patent US8940909B2, “Indicator platform” (Biosynth AG, priority 2009, dated 2015)
